According to patent US20100254965A1, “Adenosine Signaling in Diagnosis, Treatment, and Prevention of Priapism and Erectile Dysfunction” (BOARD OF REGENTS ,THE UNIVERSITY OF TEXAS SYSTEM, priority 2006, published 2010):

What was measured:
[1] = system: corpus cavernosal strips (CCS); assay: EFS-induced cGMP in CCS of ADA+ and ADA-/- mice; assay type: cell-based, mouse; conditions: EFS 5V 30 Hz, MRS1706 (10 nM), ZM241385 (50 nM), L-NAME (100 μM)
Method: FIG. 19. EFS leads to increased cAMP and cGMP production via A2BR in ADA-deficient mice. (a-b) Corpus cavernosal strips (CCS) of the ADA−/− and ADA+ mice were isolated and treated with 10 μM phenylephrine (PE) to induce precontraction. Then CCS were treated with MRS1706 (10 nM), ZM241385 (50 nM) or L-NAME (100 μM) prior to electrical field stimulation (EFS) at 5V and 30 Hz. 60 second after nerve stimulation, the CCS were quickly frozen and cellular cAMP (a) and cGMP (b) were measured by using commercial enzyme immunoassay kit (Amersham Pharmacia). N=4. Data are expressed as mean±SE. *p<0.05, ADA deficient mice versus the control; **p<0.05, CCS of ADA-deficient mice with MRS1706 and/or L-NAME treatment versus CCS of ADA-deficient mice without treatment; ***p<0.05, CCS of the control mice with MRS1706 and/or L-NAME treatment versus CCS of the control mice without treatment.
Function experiments. […] The contractility of each isolated corpus cavernosum smooth muscle cells (CCSM) strip was measured using an isometric force transducer (AD Instrument Inc., Georgia, Vt., USA). […] The contractile responses of the strips were analysed by adding 10 μM phenylephrine to the bath, and force changes were recorded in response to drug application and to electrical field stimulation. […]

[2] = system: corpus cavernosal smooth muscle cells (CCSM); assay: cAMP production in primary corpus cavernosal / penile vascular smooth muscle cells (CCSM, PVSM); assay type: cell-based, mouse; conditions: 10 min; for adenosine-mediated cAMP induction was blocked: CCSM, MRS1706 10 μM, ZM241385 50 nM
Method: PVSM were isolated and cultured from mouse penes. The cells were be switched to serum-free medium and treated with different concentrations of adenosine with or without A2B antagonist (MRS1706-1 μM) or A2A agonist (CGS-21680-1 μM) alone for 10 min. Then cellular extracts were collected and cAMP levels were measured using an ELISA kit. The data represent mean±SE.
Data are presented as mean±SE. *, p<0.01.
FIG. 18. Adenosine stimulated both cAMP and cGMP induction in corpus cavernosal smooth muscle cells (CCSM) via A2BR activation. (a) Adenosine receptor expression profile in purified primary CCSM. CCSM were purified from adult mouse penes. […] (b) CCSM were isolated and cultured from mouse penes. The cells were switched to serum-free medium and treated with different concentrations of adenosine with or without A2BR antagonist (MRS1706-10 μM), A2AR antagonist (ZM241385-50 nM) or A2AR agonist (CGS-21680-10 μM) alone for 10 min. Then cellular extracts were collected and cAMP levels were measured using an ELISA kit. The data represent mean±SE. *p<0.05, adenosine treated versus the untreated; **p<0.05, adenosine plus MRS1706 or ZM241385 versus the adenosine treated. (c) CCSM were isolated from penes of the wild type and A2BR-deficient mice and cultured with or without adenosine (100 μM), NECA (10 μM), a potent adenosine receptor agonist, forskolin (10 μM), an adenylyl cyclase agonist. After 10 min treatment, the cellular extracts were collected and cAMP levels were measured by using a commercial enzyme immunoassay kit (Amersham Pharmacia). N=4. *p<0.05, adenosine, forskolin and NECA treated versus the untreated control. (d) Corpus cavernosal strips (CCS) were isolated from wild type and A2BR-deficient mice and treated with different concentrations of adenosine in the presence or absence of L-NAME (100 μM) or MRS1706 (10 μM). 10 min after treatment, cellular extracts were collected and cGMP levels were measured by using a commercial enzyme immunoassay kit (Amersham Pharmacia). Data are expressed as mean±SE. *p<0.05, adenosine treated versus the control; **p<0.05, adenosine treated with MRS1706 versus the adenosine treated; ***p<0.05, CCS of A2BR-deficient mice treated with adenosine versus the CCS of wild type mice treated with adenosine. N=6-7. (e) CCSM were isolated from wild type and A2BR deficient mice and cultured with or without adenosine (100 μM), NECA (10 μM), a potent adenosine receptor agonist, forskolin (10 μM), an adenylyl cyclase agonist, or diethylamine-NONOate (DEA/NO) (10 μM). After 10 min treatment, the cellular extracts were collected and cAMP levels were measured by using a commercial enzyme immunoassay kit (Amersham Pharmacia). N=4. *p<0.05, DEA/NO treated versus to the untreated control. (f) Both cAMP and cGMP induction contribute to adenosine-mediated decreased PE-induced phosphorylation of myosin light chain (MLC). CCSM and CCS were isolated and cultured with the treatment of phenylephrine (PE-10 μM) in the presence or absence of adenosine (100 μM) or L-NAME (100 μM). 10 min after treatment, cellular extracts were isolated and western blot analysis were performed. The total MLC and phosphorylated MLC at S20 were detected by specific antibodies.
Isolation of primary corpus cavernosal smooth muscle cells (CCSM). Corpus cavernosum tissues were dissected as described above. Cavernosal tissue was washed in PBS and minced into […] pieces. Segments were incubated in 5-10 ml enzyme solutions containing 0.02% collagenase A (0.272 U/mg protein, Roche, Mannheim, Germany) and 0.5% elastase (3.73 U/mg protein, Cell system, St Katharinen, Germany) in a 75 mm flask at 37° C. for 6 hours. Enzymatic digestion was terminated by adding 10 ml DMEM supplemented with 10% fetal calf serum (FCS). […]

| SMILES | EFS-increased levels of cGMP were inhibited [1] | adenosine-mediated cAMP induction was blocked [2] | cAMP production ([2]; CCSM/PVSM of A2BR deficient (A2B-/-) mice) | cAMP production ([2]; CCSM/PVSM of A2BR deficient (A2B-/-) mice, listed as Adenosine) | cAMP production ([2]; wild type CCSM/PVSM, agent alone) | cAMP production ([2]; wild type CCSM/PVSM, agent alone, listed as Adenosine) |
| --- | --- | --- | --- | --- | --- | --- |
| Nc1nc(NCCc2ccc(O)cc2)nc2nc(-c3ccco3)nn12 [ZM241385] | not | not | – | – | – | – |
| Nc1ncnc2c1ncn2[C@@H]1O[C@H](CO)[C@@H](O)[C@H]1O [adenosine] | – | – | failed to induce cAMP production | essentially no effect on cAMP levels | induced cAMP | elevate cAMP levels |
| CCCn1c(=O)c2[nH]c(-c3ccc(OCC(=O)Nc4ccc(C(C)=O)cc4)cc3)nc2n(CCC)c1=O [MRS1706] | significantly inhibited | blocked | – | – | – | – |
